A short description of this data set: recombinant UMI read abundance after kanamycin selection (control-corrected) (log10(CPM+1)); higher = more efficient recombination; extreme values may be limits of the assay; sequences stand for … in AGTGCAGAGAAAATCGGCCAGTTTTCTCTGCCTGCAGTCCGCATGCCGTGGGACCCCTTGGGTTCTAACCTGTTGCCTAGATTTATGCAGCGGACTGCCTTTCTCCCAAAGTGATAAACCGG…AGGTTGGTTTCACT; site = the 11-nt donor. In a few lines: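 Under IPTG (0.07 mM) plus kanamycin, or without selection, Escherichia coli carrying a UMI-tagged donor and donor-binding-loop pair library and a target plasmid for the IS621 bridge recombinase were plated in two replicates. Recombinant UMIs were PCR-amplified across the donor–target junction and sequenced. Counts were converted to CPM, averaged over replicates, scaled by control-derived factors and reported as log10(CPM+1).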
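Further: IS621 bridge recombinase in Escherichia coli cells against a fixed T5 target plasmid.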

Take “GTGGTGGCATGGACCGGTTTTCCCGGTAATCCGTATTTGTG (site GTGGGGGCTCA)”: the “recombinant UMI read abundance (log10)” value stood at 0.0222.

As to “GTGGTGGCATGGACCGGTTTTCCCGGTAATCCGTATTTGTG (site GTGGTGGCTCA)”, the “recombinant UMI read abundance (log10)” value turned out to be 0.992.

For the sequence “GTGTCCGCATGGACCGGTTTTCCCGGTAATCCGTATTTGGC (site GTGTCCGCTGC)”, the “recombinant UMI read abundance (log10)” value is 2.26.

In the case of “GTGTGGGCATGGACCGGTTTTCCCGGTAATCCGTATTTGAG (site GTGTGGGCTCT)”, the “recombinant UMI read abundance (log10)” value stood at 1.21.

For “GTGTTACCATGGACCGGTTTTCCCGGTAATCCGTATTTGGT (site GTGTTACCTAC)”, the “recombinant UMI read abundance (log10)” value turned out to be 0.

Turning to “GTGTTATCATGGACCGGTTTTCCCGGTAATCCGTATTTGCT (site GTGTTATCTAG)”, the “recombinant UMI read abundance (log10)” value was determined as 2.87.

In the case of “GTTACACCATGGACCGGTTTTCCCGGTAATCCGTATTTGGC (site GTTACACCTGC)”, the “recombinant UMI read abundance (log10)” value amounted to 0.

Take “GTTAGAACATGGACCGGTTTTCCCGGTAATCCGTATTTGAC (site GTTAGAACTGA)”: the “recombinant UMI read abundance (log10)” value was 0.0146.

“GTTAGAACATGGACCGGTTTTCCCGGTAATCCGTATTTGAC (site GTTAGAACTGC)”: the “recombinant UMI read abundance (log10)” value turned out to be 0.0153.

Consider “GTTAGAACATGGACCGGTTTTCCCGGTAATCCGTATTTGAC (site GTTAGAACTGG)”, for which the “recombinant UMI read abundance (log10)” value was found to be 0.

Take “GTTAGAACATGGACCGGTTTTCCCGGTAATCCGTATTTGAC (site GTTAGAACTGT)”: the “recombinant UMI read abundance (log10)” value stood at 1.89.

“GTTAGAACATGGACCGGTTTTCCCGGTAATCCGTATTTGGA (site GTTAGAACTAC)”: the “recombinant UMI read abundance (log10)” value stood at 0.00435.

On to “GTTAGAACATGGACCGGTTTTCCCGGTAATCCGTATTTGGA (site GTTAGAACTCC)”, for which the “recombinant UMI read abundance (log10)” value stood at 0.0329.

For the sequence “GTTAGAACATGGACCGGTTTTCCCGGTAATCCGTATTTGGA (site GTTAGAACTGC)”, the “recombinant UMI read abundance (log10)” value worked out at 0.

“GTTAGAACATGGACCGGTTTTCCCGGTAATCCGTATTTGGA (site GTTAGAACTTC)”: the “recombinant UMI read abundance (log10)” value was 0.178.

In the case of “GTTAGAGCATGGACCGGTTTTCCCGGTAATCCGTATTTGTG (site GTTAGAGCTCA)”, the “recombinant UMI read abundance (log10)” value came to 1.74.

“GTTAGGACATGGACCGGTTTTCCCGGTAATCCGTATTTGAG (site GTTAGGACTCT)”: the “recombinant UMI read abundance (log10)” value came to 1.83.

On to “GTTATCCCATGGACCGGTTTTCCCGGTAATCCGTATTTGGC (site GTTATCCCTGC)”, for which the “recombinant UMI read abundance (log10)” value was 0.

Take “GTTCAAGCATGGACCGGTTTTCCCGGTAATCCGTATTTGCA (site GTTCAAGCTTG)”: the “recombinant UMI read abundance (log10)” value amounted to 1.62.

Turning to “GTTCAAGCATGGACCGGTTTTCCCGGTAATCCGTATTTGCA (site GTTCCAGCTTG)”, the “recombinant UMI read abundance (log10)” value was found to be 0.

Regarding “GTTCAAGCATGGACCGGTTTTCCCGGTAATCCGTATTTGCA (site GTTCGAGCTTG)”, the “recombinant UMI read abundance (log10)” value stood at 0.

Regarding “GTTCAAGCATGGACCGGTTTTCCCGGTAATCCGTATTTGCA (site GTTCTAGCTTG)”, the “recombinant UMI read abundance (log10)” value was found to be 0.

Consider “GTTCGAGCATGGACCGGTTTTCCCGGTAATCCGTATTTGAT (site GTTCGAGCTAT)”, for which the “recombinant UMI read abundance (log10)” value was 1.75.

Consider “GTTCGATCATGGACCGGTTTTCCCGGTAATCCGTATTTGCA (site GTTCGAACTTG)”, for which the “recombinant UMI read abundance (log10)” value amounted to 0.

For “GTTCGATCATGGACCGGTTTTCCCGGTAATCCGTATTTGCA (site GTTCGACCTTG)”, the “recombinant UMI read abundance (log10)” value stood at 0.

In the case of “GTTCGATCATGGACCGGTTTTCCCGGTAATCCGTATTTGCA (site GTTCGAGCTTG)”, the “recombinant UMI read abundance (log10)” value turned out to be 0.00436.

On to “GTTCGATCATGGACCGGTTTTCCCGGTAATCCGTATTTGCA (site GTTCGATCTTG)”, for which the “recombinant UMI read abundance (log10)” value stood at 2.08.

“GTTCTCCCATGGACCGGTTTTCCCGGTAATCCGTATTTGCG (site GTTCTCCCTCG)”: the “recombinant UMI read abundance (log10)” value was found to be 0.002.

With “GTTGACACATGGACCGGTTTTCCCGGTAATCCGTATTTGAA (site GTTGACACTTT)”, the “recombinant UMI read abundance (log10)” value is 0.918.

Take “GTTGACACATGGACCGGTTTTCCCGGTAATCCGTATTTGGG (site GTTGACACTCC)”: the “recombinant UMI read abundance (log10)” value was 0.371.

With “GTTGAGCCATGGACCGGTTTTCCCGGTAATCCGTATTTGTG (site GTTGAGCCTCA)”, the “recombinant UMI read abundance (log10)” value amounted to 0.033.

On to “GTTGAGGCATGGACCGGTTTTCCCGGTAATCCGTATTTGTG (site GTAGAGGCTCA)”, for which the “recombinant UMI read abundance (log10)” value stood at 1.5.

For “GTTGAGGCATGGACCGGTTTTCCCGGTAATCCGTATTTGTG (site GTCGAGGCTCA)”, the “recombinant UMI read abundance (log10)” value worked out at 0.879.

Turning to “GTTGAGGCATGGACCGGTTTTCCCGGTAATCCGTATTTGTG (site GTGGAGGCTCA)”, the “recombinant UMI read abundance (log10)” value was 0.355.

As to “GTTGAGGCATGGACCGGTTTTCCCGGTAATCCGTATTTGTG (site GTTGAGGCTCA)”, the “recombinant UMI read abundance (log10)” value was found to be 1.07.

Consider “GTTGATCCATGGACCGGTTTTCCCGGTAATCCGTATTTGGT (site GTTGATCCTAC)”, for which the “recombinant UMI read abundance (log10)” value turned out to be 0.00442.

Turning to “GTTGATCCATGGACCGGTTTTCCCGGTAATCCGTATTTGGT (site GTTGCTCCTAC)”, the “recombinant UMI read abundance (log10)” value is 0.0151.

Take “GTTGATCCATGGACCGGTTTTCCCGGTAATCCGTATTTGGT (site GTTGGTCCTAC)”: the “recombinant UMI read abundance (log10)” value is 0.0158.

Consider “GTTGATCCATGGACCGGTTTTCCCGGTAATCCGTATTTGGT (site GTTGTTCCTAC)”, for which the “recombinant UMI read abundance (log10)” value was found to be 0.011.

Turning to “GTTGCAACATGGACCGGTTTTCCCGGTAATCCGTATTTGCC (site GTTGCAACTGG)”, the “recombinant UMI read abundance (log10)” value is 0.

As for “GTTGCCTCATGGACCGGTTTTCCCGGTAATCCGTATTTGGA (site GTTGCCTCTTC)”, the “recombinant UMI read abundance (log10)” value was found to be 1.21.

With “GTTGCTCCATGGACCGGTTTTCCCGGTAATCCGTATTTGGT (site GTTGATCCTAC)”, the “recombinant UMI read abundance (log10)” value came to 0.

Turning to “GTTGCTCCATGGACCGGTTTTCCCGGTAATCCGTATTTGGT (site GTTGCTCCTAC)”, the “recombinant UMI read abundance (log10)” value stood at 0.00908.

As to “GTTGCTCCATGGACCGGTTTTCCCGGTAATCCGTATTTGGT (site GTTGGTCCTAC)”, the “recombinant UMI read abundance (log10)” value was 0.0466.

As for “GTTGCTCCATGGACCGGTTTTCCCGGTAATCCGTATTTGGT (site GTTGTTCCTAC)”, the “recombinant UMI read abundance (log10)” value came to 0.0159.

On to “GTTGCTGCATGGACCGGTTTTCCCGGTAATCCGTATTTGGC (site GTTGCTGCTGC)”, for which the “recombinant UMI read abundance (log10)” value turned out to be 0.902.

As to “GTTGGAACATGGACCGGTTTTCCCGGTAATCCGTATTTGGC (site GTTAGAACTGC)”, the “recombinant UMI read abundance (log10)” value came to 1.13.

Regarding “GTTGGAACATGGACCGGTTTTCCCGGTAATCCGTATTTGGC (site GTTCGAACTGC)”, the “recombinant UMI read abundance (log10)” value was determined as 0.

“GTTGGAACATGGACCGGTTTTCCCGGTAATCCGTATTTGGC (site GTTGGAACTGC)”: the “recombinant UMI read abundance (log10)” value worked out at 2.55.

In the case of “GTTGGAACATGGACCGGTTTTCCCGGTAATCCGTATTTGGC (site GTTTGAACTGC)”, the “recombinant UMI read abundance (log10)” value was 0.

Take “GTTGGAGCATGGACCGGTTTTCCCGGTAATCCGTATTTGCA (site GTTAGAGCTTG)”: the “recombinant UMI read abundance (log10)” value is 2.17.

Turning to “GTTGGAGCATGGACCGGTTTTCCCGGTAATCCGTATTTGCA (site GTTCGAGCTTG)”, the “recombinant UMI read abundance (log10)” value stood at 0.

In the case of “GTTGGAGCATGGACCGGTTTTCCCGGTAATCCGTATTTGCA (site GTTGGAGCTTG)”, the “recombinant UMI read abundance (log10)” value came out at 2.49.

On to “GTTGGAGCATGGACCGGTTTTCCCGGTAATCCGTATTTGCA (site GTTTGAGCTTG)”, for which the “recombinant UMI read abundance (log10)” value is 0.659.

“GTTGGTCCATGGACCGGTTTTCCCGGTAATCCGTATTTGGT (site GTTGATCCTAC)”: the “recombinant UMI read abundance (log10)” value came to 0.0104.

Turning to “GTTGGTCCATGGACCGGTTTTCCCGGTAATCCGTATTTGGT (site GTTGCTCCTAC)”, the “recombinant UMI read abundance (log10)” value is 0.00872.

Regarding “GTTGGTCCATGGACCGGTTTTCCCGGTAATCCGTATTTGGT (site GTTGGTCCTAC)”, the “recombinant UMI read abundance (log10)” value was determined as 0.0121.

Turning to “GTTGGTCCATGGACCGGTTTTCCCGGTAATCCGTATTTGGT (site GTTGTTCCTAC)”, the “recombinant UMI read abundance (log10)” value is 0.00359.

For “GTTGTTCCATGGACCGGTTTTCCCGGTAATCCGTATTTGGA (site GTTGTTCCTAC)”, the “recombinant UMI read abundance (log10)” value was determined as 0.

Consider “GTTGTTCCATGGACCGGTTTTCCCGGTAATCCGTATTTGGA (site GTTGTTCCTCC)”, for which the “recombinant UMI read abundance (log10)” value is 0.00995.

On to “GTTGTTCCATGGACCGGTTTTCCCGGTAATCCGTATTTGGA (site GTTGTTCCTGC)”, for which the “recombinant UMI read abundance (log10)” value was determined as 0.

In the case of “GTTGTTCCATGGACCGGTTTTCCCGGTAATCCGTATTTGGA (site GTTGTTCCTTC)”, the “recombinant UMI read abundance (log10)” value came to 0.0132.

“GTTTAGCCATGGACCGGTTTTCCCGGTAATCCGTATTTGGC (site GTTTAGCCTGC)”: the “recombinant UMI read abundance (log10)” value came to 0.

For the sequence “GTTTATCCATGGACCGGTTTTCCCGGTAATCCGTATTTGCT (site GATTATCCTAG)”, the “recombinant UMI read abundance (log10)” value amounted to 0.

Consider “GTTTATCCATGGACCGGTTTTCCCGGTAATCCGTATTTGCT (site GCTTATCCTAG)”, for which the “recombinant UMI read abundance (log10)” value was 0.

Consider “GTTTATCCATGGACCGGTTTTCCCGGTAATCCGTATTTGCT (site GGTTATCCTAG)”, for which the “recombinant UMI read abundance (log10)” value stood at 0.

Take “GTTTATCCATGGACCGGTTTTCCCGGTAATCCGTATTTGCT (site GTTTATCCTAG)”: the “recombinant UMI read abundance (log10)” value amounted to 0.492.

“GTTTCGGCATGGACCGGTTTTCCCGGTAATCCGTATTTGGG (site CGGGGCACTAA)”: the “recombinant UMI read abundance (log10)” value was 0.0198.

The values are drawn from the supplement of paper PMC11208160.
